The text below walks through data of patent US20120065126A1, “Pharmaceutical Compositions Containing Antifungal Peptides” (BASF SE, priority 2009, published 2012).

The test system of one assay is M. furfur. Put plainly: Effect of P18 variants (CFU). The assay is classed as cell-based, Malassezia furfur. The following applies: 50 μM peptide, with DMSO; 24 h. As for the experimental part: (§1) The studies described hereinafter were conducted on the Malassezia furfur strain DSM 6170.
The inhibitory effect of the following P18 variants on M. furfur was studied:
(§2) The growth test was effected as follows: a shake culture containing M472 Pityrosporum medium was inoculated with M. furfur and incubated with shaking at 30° C. and 200 rpm overnight.
A 96-well microtiter plate was filled with 100 μl per well of M472 Pityrosporum medium and inoculated with M. furfur suspension from the overnight culture. The M. furfur suspension was adjusted at the start of the experiment to an optical density, measured at 600 nm, of 0.1.
The peptide variants were dissolved with a final concentration of 1 mM in dimethyl sulfoxide (DMSO). It is also possible to dispense with DMSO and to use a purely aqueous peptide solution. 5 μl of this solution were added to 100 μl of M. furfur suspension (final concentration of the P18 peptide 50 μM). In a control mixture, the same amount of DMSO without P18 peptide was added.
The microtiter plate was incubated with shaking at 30°.
After 24 h, the colony forming units (CFU) were determined by streaking 10 μl of each of the suspensions and, after incubation over the course of 6 days, counting the colonies. Two independent experiments each with three identical mixtures were conducted, and the number of colony forming units was averaged.

Another assay concerns Malassezia furfur. In words: Growth inhibition at equal concentrations by weight of P18, zinc pyrithione, climbazole, ketoconazole (CFU). The assay is classed as cell-based. Here is the method:
as §1
For this purpose, the procedure was as follows:
as §2
A 96-well microtiter plate was filled with 100 μl per well of M472 Pityrosporum medium and inoculated with M. furfur suspension from the overnight culture. The M. furfur suspension was adjusted at the start of the experiment to an optical density, measured at 600 nm, of 0.02. The concentrates of the inhibitor solutions were 1 mM in DMSO for P18 peptide and 10 mM in DMSO for zinc pyrithione, ketoconazole and climbazole. The final DMSO concentration was kept the same in all experiments.
The following growth was compared by measuring the optical density: • M. furfur suspension and addition of the P18 solution with a final concentration of 50 μM (corresponds to 0.0115% (w/w)) • M. furfur suspension and addition of the zinc pyrithione (ZPT) solution with a final concentration of 362 μM (comparison to the mixture containing 50 μM P18 peptide) • M. furfur suspension and addition of the ketoconazole solution with a final concentration of 216 μM (comparison to the mixture containing 50 μM P18 peptide) • M. furfur suspension and addition of the climbazole solution with a final concentration of 390 μM (comparison to the mixture containing 50 μM P18 peptide)
The microtiter plate was incubated with shaking at 30° C.
[…] After incubation over the course of 6 days, the colonies on the plate were counted. The CFU was determined in order to rule out any influence of the biphasic medium, and also the growth form of M. furfur, on the optical density. The experiments were each conducted in double determination, at least in two independent experiments.

Another assay has as its system M. furfur DSM 6170. In words: Comparison of further inventive peptides and AFPP (CFU). The assay is classed as cell-based, Malassezia furfur. The following applies: 0.3%; 10 minutes. An excerpt: In order to compare the effect of other inventive peptides with the effect of the antifungal polypeptide AFPP from Aspergillus giganteus on the growth of Malassezia furfur, the procedure was as follows:
As a comparison, the peptide variants with SEQ ID NO. 4726 (sequence: FKKALHLFKPIKKFLKWK-NH2 (Bachem AG, Switzerland)) and SEQ ID NO. 4727 (sequence: KFLHLAKKFPKWKLFKKI-NH2 (Bachem AG, Switzerland)) were selected. The peptide and AFPP concentrates were in the form of 2% (w/w) solutions in phosphate buffer (10 mM sodium phosphate, pH 7.5, 100 mM NaCl). […]
For each test mixture, a 1.5 ml reaction vessel was filled with Pityrosporum medium and inoculated with the M. furfur overnight culture to give a start OD of 0.1, measured at 600 nm.
The growth of the following test mixtures was monitored: • M. furfur suspension and addition of 90 μl of phosphate buffer (in order to rule out any influence of the phosphate buffer on the effect of the active peptides at a final concentration of 0.3%) • M. furfur suspension with a final concentration of the inventive peptide variant with SEQ ID NO. […]
The reaction volume was 600 μl in each case. […] The CFU (colony forming units) were determined by counting after incubation at 30° C. for 6 days. […]

Ends that are not written are not given here.

Regarding H-KWKLFKKIPKFLHLAKKF-OH [P18-OH], in the assay with M. furfur, the “Averaged number of colony forming units (CFU)” value came to 3 CFU.

For the compound `CC(=O)N1CCN(c2ccc(OCC3COC(Cn4ccnc4)(c4ccc(Cl)cc4Cl)O3)cc2)CC1` (centres unmarked) [ketoconazole], the “Colony forming units (CFU)” value with Malassezia furfur (final conc. 216 μM, 24 h) is listed as 84 ± 76 CFU; in the assay with Malassezia furfur (final conc. 216 μM, 40 h), 9 ± 5 CFU.

For “KFLHLAKKFPKWKLFKKI-NH2 [Peptide variant SEQ ID NO. 4727]”, in the assay with M. furfur DSM 6170, the “Colony forming units after the incubation time specified” value is recorded as 59 ± 46 CFU.

“FKKALHLFKPIKKFLKWK-NH2 [Peptide variant SEQ ID NO. 4726]”: the “Colony forming units after the incubation time specified” value in the assay with M. furfur DSM 6170 is listed as 3 ± 1 CFU.

With `CC(C)(C)C(=O)C(Oc1ccc(Cl)cc1)n1ccnc1` (centres unmarked) [climbazole], the “Colony forming units (CFU)” value with Malassezia furfur (final conc. 390 μM, 24 h) came out at 137 ± 33 CFU; in the assay on Malassezia furfur (final conc. 390 μM, 40 h), 35 ± 15 CFU.

Consider H-PKWKLFKKIPKFLHLAKKFD-OH [P18AC-OH], for which, in the assay on M. furfur, the “Averaged number of colony forming units (CFU)” value came out at 37 CFU.
